Reference: the NIST ThermoML archive (doi:10.1021/je800017j)
Numbers after ± are expanded uncertainties.

Test: xn = mol fraction of the nth substance listed
Details: Liquid, Vibrating tube method

For C=CC [propene] + CC(C)O, the mass density (325.09 K, 5370.7 kPa, x1 = 0.2011) was 709.32 ± 0.74 kg/m3, the mass density (325.09 K, 5883.5 kPa, x1 = 0.2011) was 709.98 ± 0.75 kg/m3 and the mass density (325.09 K, 6336.2 kPa, x1 = 0.2011) was 710.58 ± 0.75 kg/m3. For the same molecule, the mass density (325.09 K, 6788.4 kPa, x1 = 0.2011) was 711.17 ± 0.75 kg/m3, the mass density (325.09 K, 7346.6 kPa, x1 = 0.2011) was 711.9 ± 0.75 kg/m3 and the mass density (325.09 K, 7879.3 kPa, x1 = 0.2011) was 712.57 ± 0.75 kg/m3. For the same molecule, the mass density (325.09 K, 8392.5 kPa, x1 = 0.2011) was 713.18 ± 0.75 kg/m3, the mass density (325.09 K, 8985.2 kPa, x1 = 0.2011) was 713.89 ± 0.76 kg/m3 and the mass density (325.09 K, 9587.7 kPa, x1 = 0.2011) was 714.65 ± 0.76 kg/m3. For the same molecule, the mass density (325.09 K, x1 = 0.2011) was 703.01 ± 0.73 kg/m3, the mass density (325.13 K, 1747.5 kPa, x1 = 0.6478) was 573.29 ± 0.62 kg/m3 and the mass density (325.13 K, 2151.8 kPa, x1 = 0.6478) was 574.52 ± 0.63 kg/m3. It also gave a mass density (325.13 K, 2607.5 kPa, x1 = 0.6478) of 575.84 ± 0.63 kg/m3, a mass density (325.13 K, 3022.1 kPa, x1 = 0.6478) of 577 ± 0.64 kg/m3 and a mass density (325.13 K, 3422.7 kPa, x1 = 0.6478) of 578.16 ± 0.64 kg/m3. For the same molecule, the mass density (325.13 K, 3826.3 kPa, x1 = 0.6478) was 579.23 ± 0.64 kg/m3, the mass density (325.13 K, 4289 kPa, x1 = 0.6478) was 580.41 ± 0.64 kg/m3 and the mass density (325.13 K, 4682.5 kPa, x1 = 0.6478) was 581.48 ± 0.65 kg/m3. The mass density (325.13 K, 5094.6 kPa, x1 = 0.6478) was 582.53 ± 0.65 kg/m3, the mass density (325.13 K, 5524.8 kPa, x1 = 0.6478) was 583.59 ± 0.65 kg/m3 and the mass density (325.13 K, 5972.2 kPa, x1 = 0.6478) was 584.68 ± 0.66 kg/m3. It also gave a mass density (325.13 K, 6431 kPa, x1 = 0.6478) of 585.75 ± 0.66 kg/m3, a mass density (325.13 K, 6923.3 kPa, x1 = 0.6478) of 586.94 ± 0.66 kg/m3 and a mass density (325.13 K, 7433.5 kPa, x1 = 0.6478) of 588.03 ± 0.67 kg/m3. For the same molecule, the mass density (325.13 K, 7935 kPa, x1 = 0.6478) was 589.22 ± 0.67 kg/m3, the mass density (325.13 K, 8459.9 kPa, x1 = 0.6478) was 590.39 ± 0.67 kg/m3 and the mass density (325.13 K, 9024 kPa, x1 = 0.6478) was 591.62 ± 0.68 kg/m3. It also gave a mass density (325.13 K, 9558.5 kPa, x1 = 0.6478) of 592.78 ± 0.68 kg/m3, a mass density (325.13 K, x1 = 0.6478) of 573.24 ± 0.62 kg/m3 and a mass density (350.12 K, 2332.3 kPa, x1 = 0.5201) of 576.59 ± 0.63 kg/m3. For the same molecule, the mass density (350.12 K, 2731.4 kPa, x1 = 0.5201) was 577.92 ± 0.63 kg/m3, the mass density (350.12 K, 2992.4 kPa, x1 = 0.5201) was 578.85 ± 0.64 kg/m3 and the mass density (350.12 K, 3218 kPa, x1 = 0.5201) was 579.68 ± 0.64 kg/m3. The mass density (350.12 K, 3506.1 kPa, x1 = 0.5201) was 580.58 ± 0.64 kg/m3, the mass density (350.12 K, 3765.6 kPa, x1 = 0.5201) was 581.46 ± 0.64 kg/m3 and the mass density (350.12 K, 4225.5 kPa, x1 = 0.5201) was 582.95 ± 0.65 kg/m3. The mass density (350.12 K, 4550.6 kPa, x1 = 0.5201) was 583.87 ± 0.65 kg/m3, the mass density (350.12 K, 4824.4 kPa, x1 = 0.5201) was 584.73 ± 0.65 kg/m3 and the mass density (350.12 K, 5103.7 kPa, x1 = 0.5201) was 585.64 ± 0.65 kg/m3. It also gave a mass density (350.12 K, 5399.3 kPa, x1 = 0.5201) of 586.54 ± 0.65 kg/m3, a mass density (350.12 K, 5715.5 kPa, x1 = 0.5201) of 587.44 ± 0.66 kg/m3 and a mass density (350.12 K, 5999.5 kPa, x1 = 0.5201) of 588.29 ± 0.66 kg/m3. The mass density (350.12 K, 6303.9 kPa, x1 = 0.5201) was 589.18 ± 0.66 kg/m3, the mass density (350.12 K, 6632.8 kPa, x1 = 0.5201) was 590.1 ± 0.66 kg/m3 and the mass density (350.12 K, 6975.5 kPa, x1 = 0.5201) was 591.05 ± 0.67 kg/m3. It also gave a mass density (350.12 K, 7280 kPa, x1 = 0.5201) of 591.94 ± 0.67 kg/m3, a mass density (350.12 K, 7641.3 kPa, x1 = 0.5201) of 592.87 ± 0.67 kg/m3 and a mass density (350.12 K, 7963.5 kPa, x1 = 0.5201) of 593.76 ± 0.67 kg/m3. The mass density (350.12 K, 8312 kPa, x1 = 0.5201) was 594.68 ± 0.68 kg/m3, the mass density (350.12 K, 8762.4 kPa, x1 = 0.5201) was 595.82 ± 0.68 kg/m3 and the mass density (350.12 K, 9211 kPa, x1 = 0.5201) was 596.88 ± 0.68 kg/m3. For the same molecule, the mass density (350.12 K, 9622.9 kPa, x1 = 0.5201) was 597.92 ± 0.69 kg/m3, the mass density (350.12 K, x1 = 0.5201) was 575.99 ± 0.62 kg/m3 and the mass density (350.18 K, 1639.5 kPa, x1 = 0.2011) was 677.13 ± 0.71 kg/m3. It also gave a mass density (350.18 K, 2070 kPa, x1 = 0.2011) of 677.93 ± 0.71 kg/m3, a mass density (350.18 K, 2446.2 kPa, x1 = 0.2011) of 678.64 ± 0.71 kg/m3 and a mass density (350.18 K, 2689 kPa, x1 = 0.6478) of 531.01 ± 0.6 kg/m3. It also gave a mass density (350.18 K, 2924.3 kPa, x1 = 0.2011) of 679.5 ± 0.71 kg/m3, a mass density (350.18 K, 3126.3 kPa, x1 = 0.6478) of 533.02 ± 0.61 kg/m3 and a mass density (350.18 K, 3271.4 kPa, x1 = 0.2011) of 680.17 ± 0.72 kg/m3. It also gave a mass density (350.18 K, 3675.3 kPa, x1 = 0.2011) of 680.86 ± 0.72 kg/m3, a mass density (350.18 K, 3686.2 kPa, x1 = 0.6478) of 535.68 ± 0.61 kg/m3 and a mass density (350.18 K, 3914.3 kPa, x1 = 0.6478) of 536.74 ± 0.62 kg/m3. It also gave a mass density (350.18 K, 4058.4 kPa, x1 = 0.2011) of 681.6 ± 0.72 kg/m3, a mass density (350.18 K, 4203.2 kPa, x1 = 0.6478) of 537.97 ± 0.62 kg/m3 and a mass density (350.18 K, 4446.8 kPa, x1 = 0.2011) of 682.32 ± 0.72 kg/m3. For the same molecule, the mass density (350.18 K, 4484.6 kPa, x1 = 0.6478) was 539.15 ± 0.62 kg/m3, the mass density (350.18 K, 4738.5 kPa, x1 = 0.6478) was 540.5 ± 0.62 kg/m3 and the mass density (350.18 K, 4791.3 kPa, x1 = 0.2011) was 682.93 ± 0.72 kg/m3. The mass density (350.18 K, 5023.4 kPa, x1 = 0.6478) was 541.63 ± 0.62 kg/m3, the mass density (350.18 K, 5171.9 kPa, x1 = 0.2011) was 683.6 ± 0.72 kg/m3 and the mass density (350.18 K, 5321.2 kPa, x1 = 0.6478) was 542.86 ± 0.63 kg/m3. The mass density (350.18 K, 5557.4 kPa, x1 = 0.2011) was 684.26 ± 0.73 kg/m3, the mass density (350.18 K, 5614 kPa, x1 = 0.6478) was 543.95 ± 0.63 kg/m3 and the mass density (350.18 K, 5938.9 kPa, x1 = 0.6478) was 545.1 ± 0.63 kg/m3. It also gave a mass density (350.18 K, 6002 kPa, x1 = 0.2011) of 684.96 ± 0.73 kg/m3, a mass density (350.18 K, 6268.4 kPa, x1 = 0.6478) of 546.35 ± 0.64 kg/m3 and a mass density (350.18 K, 6430.2 kPa, x1 = 0.2011) of 685.69 ± 0.73 kg/m3. The mass density (350.18 K, 6622.1 kPa, x1 = 0.6478) was 547.76 ± 0.64 kg/m3, the mass density (350.18 K, 6978.6 kPa, x1 = 0.6478) was 548.98 ± 0.64 kg/m3 and the mass density (350.18 K, 7071.2 kPa, x1 = 0.2011) was 686.73 ± 0.73 kg/m3. The mass density (350.18 K, 7362 kPa, x1 = 0.6478) was 550.27 ± 0.65 kg/m3, the mass density (350.18 K, 7570.5 kPa, x1 = 0.2011) was 687.62 ± 0.73 kg/m3 and the mass density (350.18 K, 7736.5 kPa, x1 = 0.6478) was 551.56 ± 0.65 kg/m3. For the same molecule, the mass density (350.18 K, 7944.1 kPa, x1 = 0.2011) was 688.25 ± 0.74 kg/m3, the mass density (350.18 K, 8126.2 kPa, x1 = 0.6478) was 552.91 ± 0.65 kg/m3 and the mass density (350.18 K, 8386.8 kPa, x1 = 0.2011) was 688.92 ± 0.74 kg/m3. For the same molecule, the mass density (350.18 K, 8525.5 kPa, x1 = 0.6478) was 554.11 ± 0.66 kg/m3, the mass density (350.18 K, 8826.8 kPa, x1 = 0.2011) was 689.6 ± 0.74 kg/m3 and the mass density (350.18 K, 8979.8 kPa, x1 = 0.6478) was 555.58 ± 0.66 kg/m3. For the same molecule, the mass density (350.18 K, 9279 kPa, x1 = 0.2011) was 690.38 ± 0.74 kg/m3, the mass density (350.18 K, 9488 kPa, x1 = 0.6478) was 557.04 ± 0.66 kg/m3 and the mass density (350.18 K, 9779.6 kPa, x1 = 0.2011) was 691.08 ± 0.74 kg/m3. For the same molecule, the mass density (350.18 K, 9989.8 kPa, x1 = 0.6478) was 558.59 ± 0.67 kg/m3, the mass density (350.18 K, x1 = 0.2011) was 676.38 ± 0.7 kg/m3 and the mass density (350.18 K, x1 = 0.6478) was 530.66 ± 0.59 kg/m3.
